From patent US11091428B2 (HAPLOGEN GMBH, priority 2016, dated 2021) come the findings set out here.

Assay [1] has as its system picornaviruses (CVB1, HRV-A2, HRV-A23, EV-68). The assay is described as follows: Anti-picornavirus cytopathic effect (CPE) reduction assay on HeLa H1 cells. The class given is cell-based. As to conditions: Enterovirus B, HeLa H1, 48 h, HeLa H1 cells, 48 h, category from averaging the EC50 values from four picornaviruses (CVB1, HRV-A2, HRV-A23, EV68); read-out: EC50 values of the compounds determined in the anti-picornavirus assay. The procedure: The antiviral activity of selected compounds was tested using a cytopathic effect (CPE) reduction assay on HeLa H1 cells (ATCC CRL-1958). Briefly, cells were seeded in 96-well dishes (2×10^4 cells/well) in DMEM medium (Life technologies) supplemented with 10% FBS and PenStrep solution (100 U/mL Penicillin and 100 μg/mL streptomycin) and incubated at 37° C., 5% CO2 ovemight. The next day, cells were pre-treated with serial dilutions of the compound in DMEM medium supplemented with 2% FBS and PenStrep for 2 h at 37° C., 5% CO2. Next, cells were infected with virus (CVB1, HRV-A2, HRV-A23, EV-68) at an multiplicity of infection (MOI) which results in a complete virus-induced CPE within 2 days in control wells (infected and vehicle-treated). After 48 h, supematants were aspirated and 50 μl/well of CellTiterBlue reagent (Promega) diluted 1:5 in DMEM+2% FBS, was added to the cells. Plates were returned to the incubator and allowed to develop for 1.5 h. After that, plates were equilibrated to RT and subsequently, fluorescence was recorded (Excitation wavelength: 560 nm; emission wavelength: 590 nm) using a SpectraMax M5 multimode plate reader. Viability of cells was calculated according to the formula: V=(RFUCpd−RFUVeh/(RFUM−RFUVeh), where RFUCpd refers to infected and compound-treated cells, RFUVeh to infected and vehicle-treated cells and RFUM to uninfected and vehicle treated cells. Half-maximal effective concentrations (EC50) were calculated by non-linear regression analysis using the drc package in R (R Development. Core Team, 2005). EC50 categories as presented in Table 2 were calculated by averaging the EC50 values from four picornaviruses (CVB1, HRV-A2, HRV-A23, EV68).
In general terms: Cytopathic effects are the visible damage that an infection or toxin causes in cultured cells.

The target in another assay is T1, PLA2G16 (Homo sapiens, UniProt P53816).
T1 construct: Hexa-His (N); made in house; host or cells: E. coli BL21(DE3)
T1 sequence (P53816 1-162): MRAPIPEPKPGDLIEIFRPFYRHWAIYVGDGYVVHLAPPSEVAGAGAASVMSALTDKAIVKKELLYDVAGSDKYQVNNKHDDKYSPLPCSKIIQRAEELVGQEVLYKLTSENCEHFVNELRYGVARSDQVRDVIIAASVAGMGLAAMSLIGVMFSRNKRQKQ
The assay is described as follows: Enzyme activity assay for PLA2G16 (Red/Green BODIPY PC-A2 fluorescence). The assay is classed as biochemical. As to conditions: His-tagged PLA2G16, 4 min pre-incubation, 2 nM to 50 μM; read-out: IC50 values of the compounds determined in the enzyme activity assay for PLA2G16. Summed up: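 IC50 from non-linear fits of fluorescence rise (480/530 nm, 10 min) after adding Red/Green BODIPY PC-A2 mixed with DOPC/DOPG/cholesterol liposomes. Recombinant His-tagged human enzyme, bacterially expressed, was first exposed to inhibitor (2 nM–50 μM final) for 4 min in 50 mM Tris pH 8.5, 100 mM NaCl, 5 mM glutathione.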

As usually defined, the EC50 is the concentration needed to bring the measured effect to its halfway point. In general, IC50 refers to the concentration that gives 50% inhibition. `CC(C)NC(=O)C(=O)C(C)N(C=O)C1CCCCC1` (stereo not shown) [FP 36, 3-(N-Cyclohexylformamido)-2-oxo-N-(propan-2-yl)butanamide]: the EC50 in assay [1] lay within 1 to 10 µM. The IC50 at PLA2G16 is below 1 µM.

Regarding `CC(NC(=O)C1CCCCC1)C(=O)C(=O)NCC1CC1` (stereo not shown) [FP 161, 3-(Cyclohexylformamido)-N-(cyclopropylmethyl)-2-oxobutanamide], the EC50 in assay [1] is above 10 µM. Moreover, the IC50 at PLA2G16 was below 1 µM.

For `CC(NC(=O)C1CCN(CC(F)(F)F)CC1)C(=O)C(=O)NCC1CCCCC1` (stereo not shown) [FP 206, N-(Cyclohexylmethyl)-2-oxo-3-{[1-(2,2,2-trifluoroethyl)piperidin-4-yl]formamido}-butanamide], the EC50 in assay [1] was in the range of 1 to 10 µM. For the same compound, the IC50 at PLA2G16 was below 1 µM.

For the compound `CC(C)NC(=O)C(=O)C(C)OCc1ccccc1` (stereo not shown) [FP 136, 3-(Benzyloxy)-2-oxo-N-(propan-2-yl)butanamide], in assay [1], the EC50 was below 1 µM. The IC50 at PLA2G16 is below 1 µM.

Consider `O=C(NC1CCN(C(=O)NC2CCC2)CC1)C(=O)[C@H]1CCC(=O)N1Cc1ccccc1` [FP 324, 4-{2-[(2R)-1-Benzyl-5-oxopyrrolidin-2-yl]-2-oxoacetamido}-N-cyclobutylpiperidine-1-carboxamide], for which, in assay [1], the EC50 was below 1 µM. Further, the IC50 on PLA2G16 is below 1 µM.

For `CCC(NS(=O)(=O)c1ccccc1)C(=O)C(=O)NCC1CC1` (stereo not shown) [FP 216, 3-Benzenesulfonamido-N-(cyclopropylmethyl)-2-oxopentanamide], the 50% effective concentration (EC50) in assay [1] fell in the range of 1 to 10 µM. Moreover, the concentration for half-maximal inhibition (IC50) on PLA2G16 is below 1 µM.

Turning to `COc1ccccc1N(C=O)C(C)C(=O)C(=O)NCc1cccc(Cl)c1` (stereo not shown) [FP 1, N-[(3-Chlorophenyl)methyl]-3-[N-(2-methoxyphenyl)formamido]-2-oxobutanamide], the EC50 in assay [1] is below 1 µM. Further, at PLA2G16, the IC50 is below 1 µM.

Consider `O=C(NC1CC1)C(=O)C1CCC(=O)N1Cc1cccc(Cl)c1` (stereo not shown) [FP 240, 2-{1-[(3-Chlorophenyl)methyl]-5-oxopyrrolidin-2-yl}-N-cyclopropyl-2-oxoacetamide], for which, in assay [1], the EC50 was 1 to 10 µM. In addition, the IC50 on PLA2G16 is below 1 µM.

Regarding `O=C(NCC1CC1)C(=O)C1CCC(=O)N1Cc1ccc(Cl)cc1` (stereo not shown) [FP 203, 2-{1-[(4-Chlorophenyl)methyl]-5-oxopyrrolidin-2-yl}-N-(cyclopropylmethyl)-2-oxoacetamide], the EC50 in assay [1] was below 1 µM. Moreover, on PLA2G16, the IC50 is below 1 µM.

Consider `CNC(=O)C(=O)[C@H]1CCC(=O)N1Cc1ccc(Cl)cc1` [FP 283, 2-[(2R)-1-[(4-Chlorophenyl)methyl]-5-oxopyrrolidin-2-yl]-N-methyl-2-oxoacetamide], for which the EC50 in assay [1] fell in the range of 1 to 10 µM. Moreover, at PLA2G16, the IC50 is below 1 µM.

Regarding `CC(NC(=O)c1cccc(Cl)c1)C(=O)C(=O)NCC1CC1` (stereo not shown) [FP 172, 3-[(3-Chlorophenyl)formamido]-N-(cyclopropylmethyl)-2-oxobutanamide], the EC50 in assay [1] is 1 to 10 µM. Moreover, the IC50 at PLA2G16 is below 1 µM.

For the compound `CC(C)OCCCNC(=O)C(=O)[C@H]1CCC(=O)N1Cc1ccccc1` [FP 301, 2-[(2R)-1-Benzyl-5-oxopyrrolidin-2-yl]-2-oxo-N-[3-(propan-2-yloxy)propyl]acetamide], in assay [1], the EC50 is below 1 µM. For the same compound, the IC50 at PLA2G16 was below 1 µM.

Consider `O=C(NCC(F)F)C(=O)[C@H]1CCC(=O)N1Cc1ccccc1` [FP 266, 2-[(2R)-1-Benzyl-5-oxopyrrolidin-2-yl]-N-(2,2-difluoroethyl)-2-oxoacetamide], for which the EC50 in assay [1] is below 1 µM. Besides, on PLA2G16, the IC50 is below 1 µM.

Consider `CC(C(=O)C(=O)NCc1cccc(Cl)c1)N(C=O)C1CCOCC1` (stereo not shown) [FP 22, N-[(3-Chlorophenyl)methyl]-3-[N-(oxan-4-yl)formamido]-2-oxobutanamide], for which the EC50 in assay [1] lay within 1 to 10 µM. In addition, the IC50 on PLA2G16 is below 1 µM.

In the case of `O=C(NC1CC1)C(=O)[C@H]1CCC(=O)N1Cc1ccc(Cl)cc1` [FP 284, 2-[(2R)-1-[(4-Chlorophenyl)methyl]-5-oxopyrrolidin-2-yl]-N-cyclopropyl-2-oxoacetamide], the 50% effective concentration (EC50) in assay [1] was below 1 µM. For the same compound, the IC50 at PLA2G16 is below 1 µM.

Turning to `CC(NC(=O)c1ccc(Cl)cc1)C(=O)C(=O)NCC1CC1` (stereo not shown) [FP 170, 3-[(4-Chlorophenyl)formamido]-N-(cyclopropylmethyl)-2-oxobutanamide], the EC50 in assay [1] is 1 to 10 µM. The IC50 at PLA2G16 was below 1 µM.

Take `C[C@H]1CC(=O)N(Cc2ccccc2)[C@H]1C(=O)C(=O)NC1CC1` (single isomer, unassigned) [FP 341]: in assay [1], the EC50 was 1 to 10 µM. Further, the IC50 on PLA2G16 was below 1 µM.

`CC(C)CNC(=O)C(=O)C(C)N(C=O)Cc1ccccc1` (stereo not shown) [FP 47, 3-(N-Benzylformamido)-N-(2-methylpropyl)-2-oxobutanamide]: in assay [1], the EC50 fell in the range of 1 to 10 µM. Moreover, the IC50 at PLA2G16 was below 1 µM.

Turning to `COCCC(C(=O)C(=O)NCC1CC1)N(C=O)Cc1ccccc1` (stereo not shown) [FP 70, 3-(N-Benzylformamido)-MN-(cyclopropylmethyl)-5-methoxy-2-oxopentanamide], the EC50 in assay [1] was in the range of 1 to 10 µM. For the same compound, on PLA2G16, the IC50 is below 1 µM.

As for `CC(C)NC(=O)C(=O)C(C)N(C=O)Cc1ccccc1` (stereo not shown) [FP 57, 3-(N-Benzylformamido)-2-oxo-N-(propan-2-yl)butanamide], the EC50 in assay [1] is 1 to 10 µM. Further, the IC50 on PLA2G16 is below 1 µM.

`CC(C)C(=O)N(C)C(C)C(=O)C(=O)NCC1CC1` (stereo not shown) [FP 151, N-(Cyclopropylmethyl)-3-(N,2-dimethylpropanamido)-2-oxobutanamide]: in assay [1], the EC50 was above 10 µM. Moreover, the IC50 at PLA2G16 was in the range of 1 to 10 µM.

Turning to `CCNC(=O)C(=O)C1N(Cc2ccccc2)C(=O)CC12CC2` (stereo not shown) [FP 348, 2-{5-Benzyl-6-oxo-5-azaspiro[2.4]heptan-4-yl}-N-ethyl-2-oxoacetamide], in assay [1], the EC50 is below 1 µM. Besides, the IC50 on PLA2G16 was below 1 µM.

`CC(C)CC(C(=O)C(=O)NCC1CC1)N(C=O)CC1CCCO1` (stereo not shown) [FP 74, N-(Cyclopropylmethyl)-5-methyl-2-oxo-3-{N[(oxolan-2-yl)methyl]formamido} hexanamide]: in assay [1], the EC50 was in the range of 1 to 10 µM. Besides, at PLA2G16, the IC50 is below 1 µM.

In the case of `CCC1CC(=O)N(Cc2ccccc2)C1C(=O)C(=O)NC1CCOCC1` (stereo not shown) [FP 344, 2-(1-Benzyl-3-ethyl-5-oxopyrrolidin-2-yl)-N-(oxan-4-yl)-2-oxoacetamide], the EC50 in assay [1] is below 1 µM. Also, on PLA2G16, the IC50 is below 1 µM.

Consider `COc1ccccc1N(C=O)C(C)C(=O)C(=O)NCc1ccc(F)c(Cl)c1` (stereo not shown) [FP 93, N-[(3-Chloro-4-fluorophenyl)methyl]-3-[A (2-methoxyphenyl)formamido]-2-oxobutanamide], for which the EC50 in assay [1] is below 1 µM. In addition, at PLA2G16, the IC50 is below 1 µM.

Take `CC(C(=O)C(=O)NCC1CCCCC1)N(C)C(=O)c1ccccc1` (stereo not shown) [FP 176, N-(Cyclohexylmethyl)-3-(N-methyl-1-phenylformamido)-2-oxobutanamide]: the EC50 in assay [1] is below 1 µM. The IC50 on PLA2G16 is below 1 µM.

Regarding `CC(C)C(C(=O)C(=O)NCC1CC1)N(C=O)CC1CCOCC1` (stereo not shown) [FP 34, N-(Cyclopropylmethyl)-4-methyl-3-{N-[(oxan-4-yl)methyl]formamido}-2-oxopentanamide], the EC50 in assay [1] fell in the range of 1 to 10 µM. Further, at PLA2G16, the IC50 is below 1 µM.

Take `O=CN(CC(=O)C(=O)NCC1CC1)Cc1ccccc1` [FP 193, 3-(N-Benzylformamido)-N-(cyclopropylmethyl)-2-oxopropanamide]: in assay [1], the EC50 is below 1 µM. Further, the IC50 at PLA2G16 is below 1 µM.

Turning to `COc1ccccc1N(C=O)C(C)C(=O)C(=O)NCc1ccncc1` (stereo not shown) [FP 90, 3-[N-(2-Methoxyphenyl)formamido]-2-oxo-N-[(pyridin-4-yl)methyl]butanamide], the EC50 in assay [1] was above 10 µM. Further, at PLA2G16, the IC50 is below 1 µM.

Consider `CC(C)[C@@H](C(=O)C(=O)NCC1CC1)N(C=O)CC(C)(C)C` (single isomer, unassigned) [FP 33], for which, in assay [1], the EC50 is 1 to 10 µM. Besides, the IC50 on PLA2G16 is below 1 µM.

On to `CC(C)CC(C(=O)C(N)=O)N(C=O)Cc1ccccc1` (stereo not shown) [FP 199, 3-(N-Benzylformamido)-5-methyl-2-oxohexanamide], for which, in assay [1], the EC50 was above 10 µM. At PLA2G16, the IC50 is below 1 µM.

In the case of `CNC(=O)C(=O)[C@H]1CCC(=O)N1Cc1ccccc1` [FP 281, 2-[(2R)-1-Benzyl-5-oxopyrrolidin-2-yl]-N-methyl-2-oxoacetamide], the EC50 in assay [1] lay in the range of 1 to 10 µM. Further, on PLA2G16, the IC50 was below 1 µM.
